BindingDB's records for PubMed 29656203 (n/a, 2018)

Test: Inhibition of angiotensin II (unknown origin)

Row | IC50 [nM] | Compound
1 | 22 | CCCCc1nc2ccc(C3CC(c4ccc(C)cc4)=NO3)cc2c(=O)n1Cc1ccc(-c2ccccc2-c2nnnn2C(c2ccccc2)(c2ccccc2)c2ccccc2)cc1 (configuration not stated)
2 | 22 | CCCCc1nc2ccc(C3CC(C(=O)OCC)=NO3)cc2c(=O)n1Cc1ccc(-c2ccccc2-c2nnnn2C(c2ccccc2)(c2ccccc2)c2ccccc2)cc1 (configuration not stated)
